Here are results for three compounds from patent publication US11319526B2, “Methods and compositions for making antibodies and antibody derivatives with reduced core fucosylation” (Seagen Inc., priority 2008, dated 2022).

Test [1] has as its system CHO DG44 cell line producing h1F6. Description: Incorporation of fucose analogs into antibodies (h1F6 from CHO DG44 culture). It is filed as cell-based, Chinese hamster. On the procedure: The effects of fucose analogs on antibody core fucosylation were tested at concentrations of […] and 1 mM as follows: A CHO DG44 cell line producing a humanized IgG1 anti-CD70 monoclonal antibody, h1F6 (see International Patent Publication WO 06/113909) was cultured at 7.5×10^5 cells per mL in 2 mLs of CHO culture media at 37°, 5% CO2 and shaking at 100 RPM in a 6 well tissue culture plate. Media was supplemented with insulin like growth factor (IGF), penicillin, streptomycin and either 1 mM or 50 μM of the fucose analog (prepared as described supra). On day 5 post inoculation, the culture was centrifuged at 13000 RPM for 5 minutes to pellet cells; antibodies were then purified from supernatant.
Antibody purification was performed by applying the conditioned media to protein A resin pre-equilibrated with 1× phosphate buffered saline (PBS), pH 7.4. After washing resin with 20 resin bed volumes of 1×PBS, antibodies were eluted with 5 resin bed volumes of Immunopure IgG elution buffer (Pierce Biotechnology, Rockford, Ill.). A 10% volume of 1M tris pH 8.0 was added to neutralize the eluted fraction. The amount of non-core fucosylated antibody produced was determined as described in Example 7.
Certain other fucose analogs were tested for their ability to be incorporated into antibodies. These fucose analogs were tested at concentrations of 50 μM and 1 mM using the methodology as described above and in Example 7.

For test [2], the system named is antibody core fucosylation in CHO DG44 cell line producing h1F6. As to the kind of experiment: Effect of fucose analogs on antibody core fucosylation (h1F6 from CHO DG44 culture). It is filed as cell-based, Chinese hamster. Particulars: Cricetulus griseus, CHO-DG44, 120 h, Table 1, day 5; for inhibition at 50 µM: 50 μM fucose analog, inhibition of core fucosylation of h1F6, read-out: Inhibition at 50 μM; for inhibition at 1000 µM: 1 mM fucose analog, ND = non-core fucosylated antibody not detected due to poor antibody production or inhibition of cell growth. On the procedure:
Media was supplemented with insulin like growth factor (IGF), penicillin, streptomycin and either 1 mM or 50 μM of the fucose analog (prepared as described supra). On day 5 post inoculation, the culture was centrifuged at 13000 RPM for 5 minutes to pellet cells; antibodies were then purified from supernatant.
Antibody purification was performed by applying the conditioned media to protein A resin pre-equilibrated with 1× phosphate buffered saline (PBS), pH 7.4. After washing resin with 20 resin bed volumes of 1×PBS, antibodies were eluted with 5 resin bed volumes of Immunopure IgG elution buffer (Pierce Biotechnology, Rockford, Ill.). A 10% volume of 1M tris pH 8.0 was added to neutralize the eluted fraction.

For test [3], the system named is core fucosylation of h1F6 in CHO DG44 cell line. As to the kind of experiment: Capillary electrophoresis of oligosaccharides of h1F6 expressed in the presence of alkynyl fucose peracetate. It is filed as cell-based, Chinese hamster. Particulars: h1F6 expressed with 50 μM alkynyl fucose peracetate; β-galactosidase treated sample (FIG. 1C). The method, then:
To determine the effect of alkynyl fucose peracetate on glycosylation of antibodies, a CHO DG44 cell line expressing a humanized IgG1 anti-CD70 monoclonal antibody, h1F6 (see International Patent Publication WO 06/113909) was cultured at 3.0×10^5 cells per mL in 30 mLs of CHO culture media at 37°, 5% CO2, by shaking at 100 RPM in 125 mL shake flasks. The CHO culture media was supplemented with insulin like growth factor (IGF), penicillin, streptomycin and either 50 or 100 μM alkynyl fucose peracetate (prepared as described in Example 1). […]
To further characterize the glycans on the h1F6 antibodies from Example 3, capillary electrophoresis was performed. […] Labeled oligosaccharides were diluted with water and analyzed by capillary electrophoresis using a Beckman Coulter PA-800 in a N-CHO coated capillary (Beckman Coulter). […] Labeled oligosaccharides were detected using laser induced fluorescence (LFI) with an excitation wavelength of 488λ. Emission fluorescence was detected at 520λ.
Samples of the antibodies were also treated with β-galactosidase to remove galactose. […] Labeled oligosaccharides were diluted with water and analyzed by capillary electrophoresis using a Beckman Coulter PA-800, in a N-CHO coated capillary (Beckman Coulter) running in 40 mM EACA, 0.2% HPMC at pH 4.5. […] Labeled oligosaccharides were detected using laser induced fluorescence (LFI) with an excitation wavelength of 488λ. […]

For test [4], the system named is BALB/C mouse spleen cell and SP2/0 mouse myeloma cell fusion expressing a murine anti-Liv-1 antibody. As to the kind of experiment: Antibody core fucosylation in hybridoma, BALB/C-SP2/0 fusion. It is filed as cell-based. Conditions: 50 μM in Hybridoma Serum Free Media. The method, then: Three antibody expressing hybridoma lines were tested to determine the effect of alkynyl fucose peracetate on antibody core fucosylation from these cell lines. These hybridomas were: 1) a BALB/C mouse spleen cell and a P2X63-AG 8.653 mouse myeloma cell fusion expressing the chimeric anti-ley antigen antibody BR96; 2) a BALB/C mouse spleen cell and a NS0 mouse myeloma cell fusion expressing a murine anti-Liv1 antibody; and 3) a BALB/C mouse spleen cell and a SP2/0mouse myeloma cell fusion expressing a murine anti-Liv-1 antibody. These hybridomas were cultured at 3.0×10^5 cells per mL in 30 mLs of Hybridoma Serum Free Media (Invitrogen, Carlsbad Calif.) supplemented with 50 μM alkynyl fucose peracetate at 37° C., 5% CO2 and shaking at 100 RPM in a 125 mL shake flask. Cultures were fed on day 3 with 2% volume of a feed media. On day four, the culture was split 1:4 into fresh culture media. Cultures were fed with a 6% volume of feed media on days 5, 7, 9 and 10. Conditioned media was collected when the viability of the culture dropped below 60% or on day 13 by passing culture through a 0.2 μm filter.
Antibody purification was performed by applying the conditioned media to a protein A column pre-equilibrated with 1× phosphate buffered saline (PBS), pH 7.4. […]

In test [5] the test system is CHO DG44 cell line producing h1F6. Description: Non-core fucosylated antibody production in different culture media. It is filed as cell-based, Chinese hamster. Particulars: 50 μM; PowerCHO versus OptiCHO media, day 5. On the procedure: To determine the effect of different culture media on non-core fucosylated antibody production, a CHO DG44 cell line producing a humanized IgG1 anti-CD70 monoclonal antibody, h1F6 (see International Patent Publication WO 06/113909), was cultured in various media. The cells (7.5×10^5 cells per mL in 2 mLs) were cultured in PowerCHO (Lonza Group Ltd., Basil, Switzerland) or OptiCHO (Invitrogen, Carlsbad, Calif.) media CHO culture media at 37°, 5% CO2 and shaking at 100 RPM in a 6 well tissue culture plate. Media was supplemented with insulin like growth factor (IGF), penicillin, streptomycin and 50 μM alkynyl fucose peracetate. On day 5 post-inoculation, the culture was centrifuged at 13000 RPM for 5 minutes to pellet cells; antibodies were then purified from supernatant.
Antibody purification was performed by applying the conditioned media to protein A resin pre-equilibrated with 1× phosphate buffered saline (PBS), pH 7.4. After washing resin with 20 resin bed volumes of 1×PBS, antibodies were eluted with 5 resin bed volumes of Immunopure IgG elution buffer (Pierce Biotechnology, Rockford, Ill.). A 10% volume of 1M tris pH 8.0 was added to neutralize the eluted fraction. Production of non-core fucosylated antibody was determined as described in Example 7. The proportion of non-core fucosylated to core fucosylated antibody produced from each media was similar.

The inhibition is the drop in the measured response relative to a control, in per cent. On to `C#CC[C@@H]1OC(OC(C)=O)[C@@H](OC(C)=O)[C@H](OC(C)=O)[C@@H]1OC(C)=O` (stereo partly drawn) [propargyl fucose tetraacetate, (3S,4R,5R,6S)-6-(prop-2-ynyl)-tetrahydro-2H-pyran-2,3,4,5-tetrayl tetraacetate], for which, in test [1] (1 mM), the “% Incorporation” value is listed as 80% (1 mM). In addition, in test [2], the inhibition at 50 µM was ~10% and the inhibition at 1000 µM lay in the range of 10 to 20%.
As to `C#CC(OC(C)=O)[C@@H](OC(C)=O)[C@@H](OC(C)=O)[C@@H](C=O)OC(C)=O` (stereo partly shown) [Alkynyl fucose peracetate, 5-ethynylarabinose tetraacetate], in test [3], the oligosaccharide core fucosylated is reported as 6% and the oligosaccharide non-core fucosylated result was “approximately 85%”. Further, the core fucosylation entry in test [4] is given as “inhibited”. Moreover, the “proportion of non-core fucosylated to core fucosylated antibody produced from each media” value in test [5] is reported as “similar”. In addition, in test [2], the inhibition at 50 µM was > 80% and the inhibition at 1000 µM is > 80%.
Turning to `CC(=O)O[C@H]([C@H](OC(C)=O)[C@H](CBr)OC(C)=O)[C@@H](C=O)OC(C)=O` [6-bromo-fucose tetraacetate, 6-bromofucose tetraacetate], the “% Incorporation” value in test [1] (50 uM) is on record as ~50%. Also, the “% Incorporation” value in test [1] (1 mM) was “(50 uM; 20% at 1 mM)”. For the same compound, in test [2], the inhibition at 50 µM was 50% and the inhibition at 1000 µM was 80%.
